{"source": "patent US9598407B2", "about": "“Antibacterial piperidinyl substituted 3,4-dihydro-1H-[1,8]naphthyridinones” (JANSSEN SCIENCES IRELAND UC, priority 2011, dated 2017)", "key": {"[1]": {"system": "Staphylococcus aureus ATCC 29213", "assay": "Antibacterial susceptibility testing, IC90 determination (STA 361.159)", "type": "cell-based", "conditions": "STA ATCC 29213; 90% inhibitory concentration for bacterial growth", "procedure": "D.2 In Vitro Method for Testing Compounds for Antibacterial Activity Against Various Bacterial Strains Preparation of Bacterial Suspensions for Susceptibility Testing\n(§1) The following bacteria were used: Staphylococcus aureus ATCC 29213, methicillin-resistant Staphylococcus aureus (MRSA) ATCC 700788 and Escherichia coli ATCC 35218. The bacteria used in this study were grown overnight in flasks containing 100 ml Mueller-Hinton broth (Difco cat. nr. 0757-17) in sterile de-ionized water, with shaking, at 37° C. Stocks were store at −70° C. until use.\n(§2) Bacteria were incubated on a tryptic soy agar plate containing 5% sheep blood (Becton Dickinson cat. nr. 254053) for 18-24 hours at 35° C. in aerobic conditions (first passage). For the second passage, fresh Mueller-Hinton broth is inoculated with 5-10 colonies and grown overnight at 35° C. until turbidity (reaching log-phase) in aerobic conditions is reached. The bacterial suspension is then adjusted to 0.5 McFarland density and further diluted 1:100 in Mueller Hinton broth medium. This is used as inoculum.\nAntibacterial Susceptibility Testing: IC90 Determination\n(§3) MIC assays were performed by the broth microdilution method in a 96-well format (flat-bottom microtitre plates) with a final volume of 0.1 ml Mueller Hinton broth containing two-fold serial dilutions of compounds and inoculated with 5×10^5 CFU/ml of bacteria (standard inoculum size according to CLSI guidelines). Inhibitors are typically varied over the range of 63 to 0.49 μM. The final DMSO concentration in the assay was 1.25% (maximum tolerable DMSO concentration=6%). In the assays where the effect of human serum on the activity of the compounds against S. aureus was tested, human serum was added at a final concentration of 10%. The plates were incubated at 35° C. for 16-20 hours. At the end of incubation the bacterial growth was quantified fluorometrically. For this, resazurin was added to all wells and the plates were re-incubated. The incubation time is dependent on the type of bacteria. A change in color from blue to pink indicated the growth of bacteria. The fluorescence was read in computer-controlled fluorometer (Fluoroskan Ascent FL, Labsystems) at an excitation wavelength 540 nm and an emission wavelength of 590 nm. The % growth inhibition achieved by the compounds was calculated according to standard methods. The IC90 (expressed in μg/ml) was defined as the 90% inhibitory concentration for bacterial growth. A panel of reference compounds were simultaneously tested for QC approval."}, "[2]": {"system": "Human HelaM cells", "assay": "Cytotoxicity MTT assay (TOX HELAM 222.125)", "type": "cell-based", "conditions": "72 hours", "procedure": "Cytotoxicity of the compounds was evaluated using the MTT assay. Human HelaM cells grown in 96-well plates were exposed to serial dilutions of the tested compounds (final volume of 0.2 ml) and incubated for 72 hours at 37° C. and 5% CO2 Inhibitors are typically varied over the range of 25 to 0.8 μM. The final DMSO concentration in the assay is 0.5%. MTT (3-(4,5-Dimethylthiazol-2-yl)-2,5-diphenyltetrazolium bromide, a tetrazole) was added and reduced to purple formazan only in living cells. Solubilization of the formazan crystals was achieved by adding 100 μl 2-propanol. Cell viability was determined by measuring the absorbance of the reduced formazan, giving a purple color, at 540 nm and 690 nm. The absorbance measured at 690 nm was automatically subtracted from the absorbance at 540 nm, to eliminate the effects of non-specific absorption. The percent cytotoxicity achieved by the compounds was calculated according to standard methods. Cytotoxicity is reported as CC50, the concentration that causes a 50% reduction in cell viability.\nThe results are depicted in the table D2 below (TOX HELAM)."}, "[3]": {"system": "S. aureus", "assay": "Antibacterial susceptibility testing, IC90 with 10% human serum (STA + 10% HS 361.169)", "type": "cell-based, Staphylococcus aureus", "conditions": "S. aureus with 10% human serum", "procedure": "as §1, §2, §3\nThe results are depicted in the table D2 below (STA+10% HS)."}, "[4]": {"target": "S. aureus ATCC 29213 FabI (Staphylococcus aureus (strain MRSA252), UniProt Q6GI75)", "assay": "Staphylococcus aureus FabI enzyme inhibition assay", "type": "biochemical", "conditions": "30 minutes at room temperature, pH 6.5", "procedure": "D.1 FabI Enzyme Inhibition: Staphylococcus aureus FabI Enzyme Inhibition Assay\nFabI enzyme inhibition assays were carried out in half-area, 384-well microtitre plates. Compounds were evaluated in 40-μl assay mixtures containing 100 mM NaADA, pH 6.5 (ADA=N-[2-acetamido]-2iminodiacetic acid), 250 μM crotonoyl-CoA, 625 μM NADH and 50 μg/ml S. aureus ATCC 29213 FabI Inhibitors were typically varied over the range of 50 to 0.39 μM. The reaction mixtures were incubated for 30 minutes at room temperature and the reaction was stopped by adding 200 mM Tris buffer (pH 9.0) to create a pH-shift. The consumption of NADH was monitored by measuring the change in absorbance at […]. By comparing sample readings to those of negative (absence of compound) and positive (absence of enzyme) controls, the percent inhibition of enzymatic activity of the compounds was determined A best-fit curve is fitted by a minimum of squares method. From this an IC50-value (expressed in μg/ml), resulting in 50% inhibition of enzymatic activity, was obtained."}}}
{"smiles": "COc1ccncc1C1=CCN(C(=O)/C=C/c2cnc3c(c2)CCC(=O)N3)CC1", "note": "[compound 20]", "values": [{"measurement": "STA (361.159) IC90", "setting": "[1]", "value": 13.23, "unit": "µg/mL"}, {"measurement": "TOX HELAM (222.125) CC50", "setting": "[2]", "value": ">9.808", "unit": "µg/mL"}, {"measurement": "STA + 10% HS (361.169) IC90", "setting": "[3]", "value": 16.85, "unit": "µg/mL"}, {"measurement": "FabI IC50", "setting": "[4]", "value": 0.78, "unit": "µg/mL"}]}
{"smiles": "COc1ccccc1C1=CCCN(C(=O)/C=C/c2cnc3c(c2)CCC(=O)N3)C1", "note": "[compound 21]", "values": [{"measurement": "FabI IC50", "setting": "[4]", "value": 0.80, "unit": "µg/mL"}]}
{"smiles": "COc1cccc(C2=CCN(C(=O)/C=C/c3cnc4c(c3)CCC(=O)N4)CC2)c1", "note": "[compound 22]", "values": [{"measurement": "STA (361.159) IC90", "setting": "[1]", "value": 21.16, "unit": "µg/mL"}, {"measurement": "TOX HELAM (222.125) CC50", "setting": "[2]", "value": ">9.783", "unit": "µg/mL"}, {"measurement": "STA + 10% HS (361.169) IC90", "setting": "[3]", "value": ">24.5733", "unit": "µg/mL"}, {"measurement": "FabI IC50", "setting": "[4]", "value": 0.93, "unit": "µg/mL"}]}
{"smiles": "COc1ccc(C2=CCN(C(=O)/C=C/c3cnc4c(c3)CCC(=O)N4)CC2)cc1", "note": "[compound 23]", "values": [{"measurement": "FabI IC50", "setting": "[4]", "value": 0.85, "unit": "µg/mL"}]}
{"smiles": "O=C1CCc2cc(/C=C/C(=O)N3CCN(Cc4ccccc4)CC3)cnc2N1", "note": "[compound 24]", "values": [{"measurement": "FabI IC50", "setting": "[4]", "value": 7.17, "unit": "µg/mL"}]}
{"smiles": "O=C1CCc2cc(/C=C/C(=O)N3CCN(c4ccccc4)CC3)cnc2N1", "note": "[compound 25]", "values": [{"measurement": "FabI IC50", "setting": "[4]", "value": 1.48, "unit": "µg/mL"}]}
{"smiles": "O=C1CCc2cc(/C=C/C(=O)N3CCCCC3)cnc2N1", "note": "[compound 26]", "values": [{"measurement": "FabI IC50", "setting": "[4]", "value": 2.73, "unit": "µg/mL"}]}
{"smiles": "CC1CN(C(=O)/C=C/c2cnc3c(c2)CCC(=O)N3)CC=C1c1ccccc1", "note": "(stereo not shown) [compound 27]", "values": [{"measurement": "STA (361.159) IC90", "setting": "[1]", "value": 6.13, "unit": "µg/mL"}, {"measurement": "TOX HELAM (222.125) CC50", "setting": "[2]", "value": ">9.381", "unit": "µg/mL"}, {"measurement": "STA + 10% HS (361.169) IC90", "setting": "[3]", "value": 21.99, "unit": "µg/mL"}, {"measurement": "FabI IC50", "setting": "[4]", "value": 0.57, "unit": "µg/mL"}]}
{"smiles": "O=C1CCc2cc(/C=C/C(=O)N3CCC(Oc4ccccc4)CC3)cnc2N1", "note": "[compound 28]", "values": [{"measurement": "FabI IC50", "setting": "[4]", "value": 0.93, "unit": "µg/mL"}]}
{"smiles": "O=C1CCc2cc(/C=C/C(=O)N3CCC(CCOc4ccccc4)CC3)cnc2N1", "note": "[compound 29]", "values": [{"measurement": "FabI IC50", "setting": "[4]", "value": 1.00, "unit": "µg/mL"}]}
{"smiles": "O=C1CCc2cc(/C=C/C(=O)N3CCC(CCOc4ccc(F)cc4)CC3)cnc2N1", "note": "[compound 30]", "values": [{"measurement": "FabI IC50", "setting": "[4]", "value": 1.34, "unit": "µg/mL"}]}
{"smiles": "O=C1CCc2cc(/C=C/C(=O)N3CCC(Cc4coc5cc(F)ccc45)CC3)cnc2N1", "note": "[compound 31]", "values": [{"measurement": "FabI IC50", "setting": "[4]", "value": 0.79, "unit": "µg/mL"}]}
{"smiles": "O=C1CCc2cc(/C=C/C(=O)N3CCC(Cc4nc5ccccc5s4)CC3)cnc2N1", "note": "[compound 32]", "values": [{"measurement": "FabI IC50", "setting": "[4]", "value": 1.72, "unit": "µg/mL"}]}
{"smiles": "O=C1CCc2cc(/C=C/C(=O)N3CCC(COc4ccc(F)cc4)CC3)cnc2N1", "note": "[compound 34]", "values": [{"measurement": "STA (361.159) IC90", "setting": "[1]", "value": 9.94, "unit": "µg/mL"}, {"measurement": "TOX HELAM (222.125) CC50", "setting": "[2]", "value": ">10.2852", "unit": "µg/mL"}, {"measurement": "STA + 10% HS (361.169) IC90", "setting": "[3]", "value": 12.51, "unit": "µg/mL"}, {"measurement": "FabI IC50", "setting": "[4]", "value": 0.47, "unit": "µg/mL"}]}
{"smiles": "O=C1CCc2cc(/C=C/C(=O)N3CCC(Cn4cnnc4)CC3)cnc2N1", "note": "[compound 38]", "values": [{"measurement": "FabI IC50", "setting": "[4]", "value": ">7.31", "unit": "µg/mL"}]}
{"smiles": "O=C1CCc2cc(/C=C/C(=O)N3CCC(Cn4ccc5ccccc54)CC3)cnc2N1", "note": "[compound 39]", "values": [{"measurement": "FabI IC50", "setting": "[4]", "value": 2.74, "unit": "µg/mL"}]}
{"smiles": "O=C1CCc2cc(/C=C/C(=O)N3CCC(Cn4cncn4)CC3)cnc2N1", "note": "[compound 40]", "values": [{"measurement": "FabI IC50", "setting": "[4]", "value": 1.43, "unit": "µg/mL"}]}
{"smiles": "O=C1CCc2cc(/C=C/C(=O)N3CCC(Cc4ccc5ccccc5n4)CC3)cnc2N1", "note": "[compound 41]", "values": [{"measurement": "FabI IC50", "setting": "[4]", "value": 3.39, "unit": "µg/mL"}]}
{"smiles": "Cc1ccc(-c2ccccc2)n1CC1CCN(C(=O)/C=C/c2cnc3c(c2)CCC(=O)N3)CC1", "note": "[compound 42]", "values": [{"measurement": "FabI IC50", "setting": "[4]", "value": 10.18, "unit": "µg/mL"}]}
